Data as given in USRE40086E1, “Method for treating bacterial infection with novel 7-substituted-9-substituted amino 6-demethyl-6-deoxytetracyclines” (Wyeth Holdings Corporation, priority 1991, dated 2008).
“Also recorded” adds a separate entry of the source.

System: tetracycline sensitive and resistant Gram-positive and Gram-negative bacteria
Test: In vitro antibacterial evaluation, MIC by agar dilution (general, Tables I-V and IA)
Assay type: cell-based
Conditions: summary of Tables I-V

CN(C)c1cc(NC=O)c(O)c2c1CC1CC3C(N(C)C)C(O)=C(C(N)=O)C(=O)C3(O)C(O)=C1C2=O (stereo not shown)
antibacterial activity in vitro (in words): good in vitro activity against tetracycline resistant strains containing the tetM resistance determinant; also recorded: superior to that of minocycline against other isolates
